Format in all cases: physicochemical
The nature of series [1]: Partition coefficient of buffer-octanol system, logP of the compound by shake-flask method.
Series [2] is described as follows: Dissociation constant, pKa of the compound.
Series [3] is described as follows: Lipophilicity, log D of the compound at pH 7.4 by UV/Vis spectroscopy based shake-flask method. The note with it: buffer.

Turning to `CCNC(=O)c1cc(OC)nc(N(C)C)n1`, the logP (as a rule, a log measure of how a compound divides between an organic and an aqueous phase) in series [1] was found to be 2.5. Moreover, the pKa (commonly the pH at which an ionisable group is half protonated) in series [2] was determined as 2.4. The logD (in general, the decadic logarithm of the distribution of all forms, ionised or not, between an organic phase and buffer at a given pH) in series [3] was 2.6.

`CCNC(=O)c1cc(N(C)C)nc(OC)n1`: the logP in series [1] turned out to be 1.7. For the same compound, the pKa in series [2] was 3.8. In series [3], the pH-dependent lipophilicity (logD) came to 1.6.

With `CCNC(=O)c1nc(OC)cc(N(C)C)n1`, in series [1], the logP came out at 1.1. In addition, in series [2], the pKa was 2.9. Also, the logD in series [3] amounted to 1.

The compound `O=C1CCCc2cccnc21` displayed a logP in series [1] of 0.4. In addition, in series [3], the logD stood at 0.2.

In series [1], `O=C1CCCc2ccncc21` showed a logP of 0.9. For the same compound, the logD in series [3] is 0.8.

In series [1], `O=C1CCCc2cnccc21` had a logP of 1.5. Besides, the logD in series [3] was 1.

As to `O=C1CCCc2ncccc21`, the log partition coefficient (logP) in series [1] worked out at 1.2. In addition, the logD in series [3] is 0.9.
